Measurements: patent US20120202856A1, “SUBSTITUTED BENZIMDAZOLE DERIVATIVES USEFUL AS TRPM8 RECEPTOR MODULATORS” (priority 2011, published 2012)
Several values for one entry are separate records, joined by “and”; a condition that tells them apart may be missing. Equal entries are not always repeated. Structures can show the parent of a compound that is named as a salt.

Target: T1, canine TRPM8 (Canis lupus familiaris, UniProt Q1A7N1)
T1 construct: expressed in transfected cells
Test: In Vitro Canine TRPM8 Functional Assay (intracellular Ca2+ fluorescence, icilin activation, HEK293 cells)
Format: cell-based
Conditions: for IC50: HEK293 cells expressing canine TRPM8, icilin activation, individually measured values (batches/salt forms), read-out: IC50 (nM), in vitro TRP M8 Activity; for inhibition at 0.2 µM: HEK293, 0.2 μM test compound, individually measured values, read-out: % Inh (%) @0.2 μM, in vitro TRP M8 Activity
Experimental: The changes in fluorescent signal were monitored by a fluorescence plate reader, either a FLIPR™ (Molecular Devices) or FDSS (Hamamatsu). […] Cells were maintained in 5% CO2 at 37° C. At 24 hr prior to assay, cells were seeded in black wall, clear-base poly-D-lysine coated 384-well plates (BD Biosciences, NJ, USA) at a density of 5,000 cells per well in culture medium and grown overnight in 5% CO2 at 37° C. On assay day, growth media was removed, and cells were loaded with Calcium 3 Dye (Molecular Devices) for 35 min at 37° C., under 5% CO2 and then incubated for 25 min at room temperature and atmosphere. Subsequently, cells were tested for agonist-induced increases in intracellular Ca^2+ levels using FLIPR™ or FDSS. […] Maximal fluorescence intensity (FI) achieved upon addition of icilin was exported from the FLIPR™ or FDSS software and further analyzed using GraphPad Prism 3.02 (Graph Pad Software Inc., CA, U.S.A.). Basal FI was subtracted prior to normalizing data to percent of maximal response. Curves were generated using the average of quadruplicate wells for each data point using nonlinear regression of either sigmoidal dose response or sigmoidal dose response (variable slope). Finally, IC50 values were calculated with the best-fit curve determined by GraphPad Prism

T1 sequence (Q1A7N1 1-1104): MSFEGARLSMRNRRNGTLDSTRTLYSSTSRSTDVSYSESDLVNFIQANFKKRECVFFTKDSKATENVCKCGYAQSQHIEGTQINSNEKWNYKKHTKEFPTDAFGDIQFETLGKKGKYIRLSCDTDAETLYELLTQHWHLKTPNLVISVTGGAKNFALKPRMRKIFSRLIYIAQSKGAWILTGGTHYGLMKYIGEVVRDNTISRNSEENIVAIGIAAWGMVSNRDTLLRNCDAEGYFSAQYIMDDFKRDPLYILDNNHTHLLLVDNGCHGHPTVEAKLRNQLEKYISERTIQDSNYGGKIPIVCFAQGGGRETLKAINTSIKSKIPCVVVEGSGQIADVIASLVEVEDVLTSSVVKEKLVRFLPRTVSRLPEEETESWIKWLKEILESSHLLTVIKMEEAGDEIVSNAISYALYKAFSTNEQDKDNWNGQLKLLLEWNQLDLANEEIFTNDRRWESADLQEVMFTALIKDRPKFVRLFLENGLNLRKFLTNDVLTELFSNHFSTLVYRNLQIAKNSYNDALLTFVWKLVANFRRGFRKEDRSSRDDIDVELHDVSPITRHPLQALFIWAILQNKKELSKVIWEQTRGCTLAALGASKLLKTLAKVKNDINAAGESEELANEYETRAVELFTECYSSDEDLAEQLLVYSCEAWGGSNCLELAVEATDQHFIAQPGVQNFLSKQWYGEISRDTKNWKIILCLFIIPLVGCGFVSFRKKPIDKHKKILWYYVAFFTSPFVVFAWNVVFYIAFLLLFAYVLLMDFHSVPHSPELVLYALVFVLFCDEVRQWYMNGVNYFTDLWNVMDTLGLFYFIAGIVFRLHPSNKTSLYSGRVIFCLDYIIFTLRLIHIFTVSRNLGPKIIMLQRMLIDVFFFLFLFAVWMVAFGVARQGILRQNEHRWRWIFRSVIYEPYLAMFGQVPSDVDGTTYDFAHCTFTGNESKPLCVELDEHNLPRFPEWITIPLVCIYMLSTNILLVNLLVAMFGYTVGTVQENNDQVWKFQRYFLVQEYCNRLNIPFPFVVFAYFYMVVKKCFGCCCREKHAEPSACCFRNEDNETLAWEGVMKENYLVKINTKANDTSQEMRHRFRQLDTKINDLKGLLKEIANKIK

| IC50 | inhibition at 0.2 µM | Compound |
| --- | --- | --- |
| 22.5 nM |  | CC(C)c1cc(-c2nc3cc(-c4ccccc4OC(F)(F)F)ccc3[nH]2)on1 [Compound 5, 2-(3-Isopropylisoxazol-5-yl)-5-(2-trifluoromethoxyphenyl)-1H-benzimidazole sodium salt] |
| 58 nM |  | FC(F)(F)c1ccccc1-c1ccc2[nH]c(-c3cc(C4CC4)no3)nc2c1 [Compound 16, 2-(3-cyclopropylisoxazol-5-yl)-5-(2-trifluoromethylphenyl)-1H-benzimidazole sodium salt] |
| 27 nM |  | CCCc1cc(-c2nc3ccc(-c4ccccc4C(F)(F)F)cc3[nH]2)on1 [Compound 18, 2-(3-Propylisoxazol-5-yl)-6-(2-trifluoromethylphenyl)-1H-benzimidazole hydrochloride] |
| 18 nM |  | CCCc1cc(-c2nc3ccc(-c4ccccc4OC(F)(F)F)cc3[nH]2)on1 [Compound 19, 2-(3-Propylisoxazol-5-yl)-6-(2-trifluoromethoxyphenyl)-1H-benzimidazole hydrochloride] |
| 19 nM |  | CC(C)(C)Cc1cc(-c2nc3ccc(-c4ccccc4C(F)(F)F)cc3[nH]2)on1 [Compound 20, 2-[3-(2,2-Dimethylpropyl)isoxazol-5-yl]-6-(2-trifluoromethylphenyl)-1H-benzimidazole hydrochloride] |
| 29 nM |  | CC(C)(C)Cc1cc(-c2nc3ccc(-c4ccccc4OC(F)(F)F)cc3[nH]2)on1 [Compound 21, 2-[3-(2,2-Dimethylpropyl)-isoxazol-5-yl]-6-(2-trifluoromethoxyphenyl)-1H-benzimidazole hydrochloride] |
| 32 nM |  | CC(C)Cc1cc(-c2nc3cc(-c4ccccc4C(F)(F)F)ccc3[nH]2)on1 [Compound 22, 2-(3-Isobutylisoxazol-5-yl)-5-(2-trifluoromethylphenyl)-1H-benzimidazole hydrochloride] |
| 30 nM |  | CC(C)Cc1cc(-c2nc3ccc(-c4ccccc4OC(F)(F)F)cc3[nH]2)on1 [Compound 23, 2-(3-Isobutylisoxazol-5-yl)-6-(2-trifluoromethoxyphenyl)-1H-benzimidazole hydrochloride] |
|  | 63% | FC(F)(F)c1ccccc1-c1ccc2nc(-c3cc(C4CCCCC4)no3)[nH]c2c1 [Compound 24, 2-(3-Cyclohexylisoxazol-5-yl)-6-(2-trifluoromethylphenyl)-1H-benzimidazole hydrochloride] |
| 39 nM |  | CCC(CC)c1cc(-c2nc3ccc(-c4ccccc4C(F)(F)F)cc3[nH]2)on1 [Compound 26, 2-[3-(1-Ethylpropyl)-isoxazol-5-yl]-6-(2-trifluoromethylphenyl)-1H-benzimidazole hydrochloride] |
| 46 nM |  | CCC(CC)c1cc(-c2nc3ccc(-c4ccccc4OC(F)(F)F)cc3[nH]2)on1 [Compound 27, 2-[3-(1-Ethylpropyl)-isoxazol-5-yl]-6-(2-trifluoromethoxyphenyl)-1H-benzimidazole hydrochloride] |
| 145 nM |  | FC(F)(F)c1ccccc1-c1ccc2[nH]c(-c3cc(Cl)no3)nc2c1 [Compound 33, 2-(3-Chloroisoxazol-5-yl)-5-(2-trifluoromethylphenyl)-1H-benzimidazole sodium salt] |
| 72.9 nM |  | FC(F)(F)Oc1ccccc1-c1ccc2[nH]c(-c3cc(Cl)no3)nc2c1 [Compound 34, 2-(3-Chloroisoxazol-5-yl)-5-(2-trifluoromethoxyphenyl)-1H-benzimidazole sodium salt] |
| 151 nM |  | FC(F)(F)c1ccccc1-c1ccc2[nH]c(-c3cc(Br)no3)nc2c1 [Compound 42, 2-(3-Bromoisoxazol-5-yl)-5-(2-trifluoromethylphenyl)-1H-benzimidazole sodium salt] |
| 94.6 nM |  | FC(F)(F)Oc1ccccc1-c1ccc2[nH]c(-c3cc(Br)no3)nc2c1 [Compound 43, 2-(3-Bromoisoxazol-5-yl)-5-(2-trifluoromethoxyphenyl)-1H-benzimidazole sodium salt] |

Continued, compound first:

| Compound | IC50 | inhibition at 0.2 µM |
| --- | --- | --- |
| CC(C)c1cc(-c2nc3cc(-c4ccccc4)ccc3[nH]2)on1 [Compound 1, 2-(3-Isopropylisoxazol-5-yl)-5-phenyl-1H-benzimidazole sodium salt] | 111 nM |  |
| COc1ccccc1-c1ccc2[nH]c(-c3cc(C(C)C)no3)nc2c1 [Compound 2, 2-(3-Isopropylisoxazol-5-yl)-5-(2-methoxyphenyl)-1H-benzimidazole sodium salt] | 16 nM |  |
| CCOc1ccccc1-c1ccc2[nH]c(-c3cc(C(C)C)no3)nc2c1 [Compound 6, 2-(3-Isopropylisoxazol-5-yl)-5-(2-ethoxyphenyl)-1H-benzimidazole sodium salt] | 64.4 nM |  |
| CC(C)c1cc(-c2nc3cc(-c4cccc(C(F)(F)F)c4)ccc3[nH]2)on1 [Compound 7, 2-(3-Isopropylisoxazol-5-yl)-5-(3-trifluoromethylphenyl)-1H-benzimidazole sodium salt] |  | 10% |
| COc1ccccc1-c1ccc2[nH]c(-c3cc(C(C)(C)C)no3)nc2c1 [Compound 8, 2-(3-tert-Butylisoxazol-5-yl)-5-(2-methoxyphenyl)-1H-benzimidazole sodium salt] | 11.1 nM and 8 nM |  |
| Cn1nc(C(C)(C)C)cc1-c1nc2cc(-c3ccccc3OC(F)(F)F)ccc2[nH]1 [Compound 14, 2-(5-tert-Butyl-2-methyl-2H-pyrazol-3-yl)-5-(2-trifluoromethoxyphenyl)-1H-benzimidazole sodium salt] | 44 nM |  |
| COc1ccccc1-c1ccc2[nH]c(-c3cc(C4CC4)no3)nc2c1 [Compound 15, 2-(3-cyclopropylisoxazol-5-yl)-5-(2-methoxyphenyl)-1H-benzimidazole sodium salt] | 70 nM |  |
| FC(F)(F)Oc1ccccc1-c1ccc2[nH]c(-c3cc(C4CC4)no3)nc2c1 [Compound 17, 2-(3-cyclopropylisoxazol-5-yl)-5-(2-trifluoromethoxyphenyl)-1H-benzimidazole sodium salt] | 52 nM |  |
| FC(F)(F)Oc1ccccc1-c1ccc2nc(-c3cc(C4CCCCC4)no3)[nH]c2c1 [Compound 25, 2-(3-Cyclohexylisoxazol-5-yl)-6-(2-trifluoromethoxyphenyl)-1H-benzimidazole hydrochloride] |  | 63% |
| Cn1nc2c(c1-c1nc3cc(-c4ccccc4C(F)(F)F)ccc3[nH]1)CCCC2(C)C [Compound 30, 2,7,7-Trimethyl-3-[5-(2-trifluoromethylphenyl)-1H-benzimidazol-2-yl]-4,5,6,7-tetrahydro-2H-indazole sodium salt] | 36 nM |  |
| Cn1nc2c(c1-c1nc3cc(-c4ccccc4OC(F)(F)F)ccc3[nH]1)CCCC2(C)C [Compound 31, 2,7,7-Trimethyl-3-[5-(2-trifluoromethoxyphenyl)-1H-benzimidazol-2-yl]-4,5,6,7-tetrahydro-2H-indazole sodium salt] | 84 nM |  |
| Cn1nc2c(c1-c1nc3cc(-c4ccccc4Cl)ccc3[nH]1)CCCC2(C)C [Compound 32, 3-[5-(2-Chlorophenyl)-1H-benzimidazol-2-yl]-2,7,7-trimethyl-4,5,6,7-tetrahydro-2H-indazole sodium salt] | 21 nM |  |
| Cn1nc(C2CCC2)cc1-c1nc2cc(-c3ccccc3C(F)(F)F)ccc2[nH]1 [Compound 37, 2-(5-Cyclobutyl-2-methyl-2H-pyrazol-3-yl)-5-(2-trifluoromethyl-phenyl)-1H-benzimidazole sodium salt] | 55.9 nM |  |
| Cn1nc(C2CCC2)cc1-c1nc2cc(-c3ccccc3OC(F)(F)F)ccc2[nH]1 [Compound 38, 2-(5-Cyclobutyl-2-methyl-2H-pyrazol-3-yl)-5-(2-trifluoromethoxy-phenyl)-1H-benzimidazole sodium salt] | 55.8 nM |  |
| Cn1nc(C2CCC2)cc1-c1nc2cc(-c3ccccc3Cl)ccc2[nH]1 [Compound 39, 2-(5-Cyclobutyl-2-methyl-2H-pyrazol-3-yl)-5-(2-chlorophenyl)-1H-benzimidazole sodium salt] | 20 nM |  |
| Cn1nc(C(F)(F)F)cc1-c1nc2cc(-c3ccccc3C(F)(F)F)ccc2[nH]1 [Compound 40, 2-(5-Trifluoromethyl-2-methyl-2H-pyrazol-3-yl)-5-(2-trifluoromethylphenyl)-1H-benzimidazole sodium salt] | 81.5 nM |  |
| Cn1nc(C(F)(F)F)cc1-c1nc2cc(-c3ccccc3OC(F)(F)F)ccc2[nH]1 [Compound 41, 2-(5-Trifluoromethyl-2-methyl-2H-pyrazol-3-yl)-5-(2-trifluoromethoxyphenyl)-1H-benzimidazole sodium salt] | 133 nM |  |
| CCn1nc(C(C)(C)C)cc1-c1nc2cc(-c3ccccc3OC(F)(F)F)ccc2[nH]1 [Compound 45, 2-(5-tert-butyl-2-ethyl-2H-pyrazol-3-yl)-5-(2-trifluoromethoxyphenyl)-1H-benzimidazole sodium salt] | 51.2 nM |  |
| CC(C)n1nc(C(C)(C)C)cc1-c1nc2cc(-c3ccccc3C(F)(F)F)ccc2[nH]1 [Compound 46, 2-(5-tert-Butyl-2-isopropyl-2H-pyrazol-3-yl)-5-(2-trifluoromethylphenyl)-1H-benzimidazole sodium salt] | 21 nM |  |
| CC(C)n1nc(C(C)(C)C)cc1-c1nc2cc(-c3ccccc3OC(F)(F)F)ccc2[nH]1 [Compound 47, 2-(5-tert-Butyl-2-isopropyl-2H-pyrazol-3-yl)-5-(2-trifluoromethoxyphenyl)-1H-benzimidazole sodium salt] | 49.6 nM |  |
